Measurements: patent publication US20130237570A1 (priority 2002, published 2013)
Where two headings read alike, the source gives them in different places.

Tests used:
[1] = Buffer capacity determination by titration with 0.1 M HCl; format: physicochemical; conditions: without added buffering agent
Description: Method: 10.0 ml of the respective below solutions was titrated with 0.1 M HCl to pH 7.0. The amount of 0.1 M HCl needed to decrease pH from 9.0 to 8.0 was determined

[2] = Source text: Absorption of nicotine from the oral cavity to the systemic circulation is dependent on the pH of the saliva and the pKa of nicotine, which is about 7.8. Assuming a pH of the saliva of 6.8 only about 10% of the nicotine in saliva will be in the free base form. Thus, in order to promote absorption of nicotine in a free base form, which is the form predominantly absorbed through the mucosa, the pH of the saliva must be increased. At a pH of 8.8 about 90% of the nicotine in saliva will then be in the free base form.
[3] = Merck Index; cited from earlier work
[4] = smoking of a cigarette; cited from earlier work

## CN1CCCC1c1cccnc1 (centres unmarked) [nicotine, 3-(1-methyl-2-pyrrolidinyl)-pyridine]
[1]
  buffering capacity on its own, in words: too weak a buffering capacity on its own
[2]; saliva pH 6.8
  nicotine in saliva in the free base form: about 10%
[2]; saliva pH 8.8
  nicotine in saliva in the free base form: about 90%
[3]
  amount of nicotine that may kill an adult: Approximately forty
[4]
  time for nicotine to reach the brain after inhalation: around ten
